# Counter-ions that a name gives are not always drawn.
# Tested on: ATXN1(60Q)
# Assay: Daoy-ATXN1(60Q)-mATXN1 MSD assay (CTG normalized)
# Assay type: cell-based
# Conditions: Daoy-Flag-ATXN1(60Q) stable cells, compound added Day 2, lysis Day 3, final DMSO 0.3%, read-out: Daoy-ATXN1(60Q)-mATXN1 MSD (CTG normalized) DC50
# Description: Protocol for MSD Assay: Daoy-ATXN1(600)-mATXN1 MSD (CTG normalized)
# The Flag-ATXN1(60Q) gene is synthesized by Genescript and cloned into the pLVX-IRES-Puro vector (Takarabio, catalog No. 632183) using EcoRI/BamHI restriction enzyme sites. Lentivirus is made by transfecting HEK293T cells with pLVX-IRES-Puro-Flag-ATXN1(60Q) plasmids and packaging plasmids psPAX2 and pMD2.G at 4:3:1 ratio (8:6:[…], respectively) in 10 cm plates, and are harvested at 48 hours post transfection. Daoy cells (ATCC catalog No. HTB-186) seeded in T25 flasks are infected with the lentivirus in the presence of 8 µg/mL polybrene (Sigma, TR-1003-G) for 24 hours. 48 hours post infection, the cells are selected using 0.5 […] (Sigma, P8833) for more than 5 days until all cells in the uninfected group die. The expression of Flag-ATXN1(60Q) is verified by anti-Flag immunoblot using anti-Flag antibody (Sigma, F1804-200UG, M2).
# As explained above, Daoy-Flag-ATXN1(60Q) cells are prepared as a stable cell line by infecting Daoy cells with lentivirus. The media for the cells is EMEM (ATTC, 30-2008) with 10% fetal bovin serum (FBS).
# On Day 1, the Daoy-Flag-ATXN1(60Q) cells are seeded in a 96 well plate at a concentration of 1.2×10^4/well. On Day 2, the cells are treated with test compounds at test concentrations (compounds are serially diluted with DMSO to obtain test concentrations, such that final DMSO concentration is 0.3%). On Day 3, the cells are washed with 100 μL of phosphate-buffered saline (PBS) per well, and then 30 μL of radioimmuno-precipitation assay (RIPA) buffer (with protease and phosphatase inhibitor cocktail) is added to each well.
# The well plate is then cooled on ice for 30 minutes in order to complete lysis, and MSD samples are prepared using 10 μL of Daoy-Flag-ATXN1-60Q lysate and 90 μL of RIPA buffer with gentle mixing. Each MSD sample has a total volume of 100 μL, and is used immediately or stored at −80° C.
# A standard Meso Scale Discovery (MSD) plate is coated with anti-Flag (Sigma, F1804-200UG, M2) in PBS at 1:500 dilution ratio and 40 µL/well, and is incubated at 4° C. overnight with shaking at 600 rpm. Then, the MSD plate is washed 3 times with 150 µL/well of 1X TBST (tris-buffered saline (TBS) with Tween 20) buffer, and the MSD plate is blocked with 150 μL of blocking buffer [3% Blocker A in 1X TBST, (3 g Blocker A per 100 mL 1X TBST)] and shaken for 1 hour at 600 rpm at room temperature. Then, the MSD plate is washed three times with 150 μL/well of 1X TBST. Next, the diluted lysate samples (from Sample Preparation above) are added to the MSD plate at 25 μL/well, and the MSD plate is shaken at 600 rpm for 1 hour at room temperature. Then the MSD plate is washed 3 times with 150 μL/well of 1X TBST.
# Detection antibody anti-Ataxin 1 (G-bio, ITA1916) (1:500), which is prepared in antibody detection buffer (1% Blocker A in 1X TBST), is then added to the MSD plate at 25 µL/well, and the MSD plate is shaken at 600 rpm for 1 hour at room temperature. The MSD plate is then washed three times with 150 μL/well of 1X TBST. Next, a secondary detection antibody, Goat anti-rabit (GAR) with SULFO-TAG (1:500), which is prepared in antibody detection buffer (1% Blocker A in 1X TBST), is added at 25 μL/well and the MSD plate is shaken at 600 rpm for 1 hour at room temperature. Then the MSD plate is washed 3 times with 150 μL/well of 1X TBST, and 2X MSD reading buffer is added at 150 μL/well (diluted from 4x MSD reading buffer with water). Finally, the signal from each well is measured on the MSD Meso QuickPle SQ120 Plate Reader. DC50 data is calculated using collaborate drug discovery (CDD) software (https://www.collaborativedrug.com/about).
row,Compound,DC50 [µM]
1,"Cn1cc(N/C(=C2\C(=O)Nc3ccc(Br)cc32)c2cccc(O)c2)cn1 [Example 71, (Z)-5-bromo-3-((3-hydroxyphenyl)((1-methyl-1H-pyrazol-4-yl)amino)methylene)indolin-2-one]",< 10
2,"CN1CC(N/C(=C2\C(=O)Nc3ccc(Br)cc32)c2cccc(O)c2)C1 [Example 9, (Z)-5-bromo-3-((3-hydroxyphenyl)((1-methylazetidin-3-yl)amino)methylene) indolin-2-one]",< 10
3,"Cn1cc(N/C(=C2\C(=O)Nc3ccc(Br)cc32)c2ccc(F)c(F)c2)cn1 [Example 43, (Z)-5-bromo-3-((3,4-difluorophenyl)((1-methyl-1H-pyrazol-4-yl)amino)methylene) indolin-2-one]",> 30
4,"O=C1Nc2ccc(Br)cc2/C1=C(/Nc1cccnc1)c1cccc(O)c1 [Example 66, (Z)-5-bromo-3-((3-hydroxyphenyl) (pyridin-3-ylamino)methylene)indolin-2-one]",< 10
5,"O=C1Nc2ccc(Br)cc2/C1=C(/Nc1ccnnc1)c1ccc(F)c(F)c1 [Example 42, (Z)-5-bromo-3-((3,4-difluorophenyl) (pyrazin-4-ylamino)methylene) indolin-2-one]",> 30
6,"O=C1Nc2ccc(Br)cc2/C1=C(/Nc1ccnnc1)c1ccc2[nH]c(=O)oc2c1 [Example 64, (Z)-6-((5-bromo-2-oxoindolin-3-ylidene)(pyridazin-4-ylamino)methyl) benzo[d]oxazol-2(3H)-one]",< 10
7,"O=C1Nc2ccc(Br)cc2/C1=C(/NC1CNC1)c1cccc(F)c1 [Example 37, (Z)-3-((azetidin-3-ylamino)(3-fluorophenyl)methylene)-5-bromoindolin-2-one]",< 10
8,"O=C1Nc2ccc(Br)cc2/C1=C(/Nc1cnn(C(F)F)c1)c1ccccc1 [Example 55, (Z)-5-bromo-3-(((1-(difluoromethyl)-1H-pyrazol-4-yl)amino)(phenyl)methylene)indolin-2-one]",> 30
9,"O=C1Nc2ccc(Br)cc2/C1=C(/Nc1cncnc1)c1ccccc1 [Example 45, (Z)-5-bromo-3-(phenyl(pyrimidin-5-ylamino)methylene) indolin-2-one]",< 10
10,"O=C1Nc2ccc(Br)cc2/C1=C(/NCCCF)c1ccccc1 [Example 19, (Z)-5-bromo-3-(((3-fluoropropyl)amino) (phenyl)methylene) indolin-2-one]",< 10
11,"COc1cc(/C(Nc2ccnnc2)=C2/C(=O)Nc3ccc(Br)cc32)ccc1N [Example 62, (Z)-3-((4-amino-3-methoxyphenyl)(pyridazin-4-ylamino)methylene)-5-bromoindolin-2-one]",> 30
12,"NCCN/C(=C1\C(=O)Nc2ccc(Br)cc21)c1cc(N)ccc1F [Example 32, (Z)-3-((5-amino-2-fluorophenyl)((2-aminoethyl)amino)methylene)-5-bromo indolin-2-one]",< 10
13,"NCCN/C(=C1\C(=O)Nc2ccc(Br)cc21)c1ccccc1 [Example 28, (Z)-3-(((2-aminoethyl)amino) (phenyl)methylene)-5-bromoindolin-2-one]",10 to 30
14,"Nc1cccc(/C(NCCCF)=C2/C(=O)Nc3ccc(Br)cc32)c1 [Example 58, (Z)-3-((3-aminophenyl)((3-fluoropropyl)amino)methylene)-5-bromoindolin-2-one]",< 10
15,"O=C1Nc2ccc(Br)cc2/C1=C(/Nc1ccnnc1)c1ccccc1 [Example 39, (Z)-5-bromo-3-(phenyl(pyridazin-4-ylamino)methylene) indolin-2-one]",< 10
16,"O=C1Nc2ccc(Br)cc2/C1=C(/NC1CCNC1)c1cccc(O)c1 (stereo not shown) [Example 24, (Z)-5-bromo-3-((3-hydroxyphenyl) (pyrrolidin-3-ylamino)methylene) indolin-2-one formate]",> 30

row,Compound,DC50 [µM]
1,"O=C1Nc2ccc(Br)cc2/C1=C(/NCCCF)c1cccc(O)c1 [Example 6, (Z)-5-bromo-3-(((3-fluoropropyl)amino) (3-hydroxyphenyl)methylene)indolin-2-one]",< 10
2,"NCCOCCOCCOCCN/C(=C1\C(=O)Nc2ccc(Br)cc21)c1cccc(O)c1 [Example 36, (Z)-3-(13-amino-1-(3-hydroxyphenyl)-5,8,11-trioxa-2-azatridecylidene)-5-bromoindolin-2-one]",10 to 30
3,"NCCN/C(=C1\C(=O)Nc2ccc(Br)cc21)c1cccc(O)c1 [Example 27, (Z)-3-(((2-aminoethyl)amino)(3-hydroxyphenyl)methylene)-5-bromo indolin-2-one]",< 10
4,"C/C(=C1\C(=O)Nc2ccc(Br)cc21)c1cc(O)c(O)c(Br)c1 [Example 98, 5-Bromo-3-(1-(3-bromo-4,5-dihydroxyphenyl)ethylidene)indolin-2-one]",> 30
5,"O=C1Nc2ccc(Br)cc2/C1=C(/Nc1cnccn1)c1ccccc1 [Example 46, (Z)-5-bromo-3-(phenyl(pyrazin-2-ylamino)methylene) indolin-2-one]",> 30
6,"N/C(=C1\C(=O)Nc2ccc(Br)cc21)c1cc(O)c(Br)cn1 [Example 83, (Z)-3-(amino(5-bromo-4-hydroxypyridin-2-yl)methylene)-5-bromoindolin-2-one]",> 30
7,"N#Cc1n[nH]cc1N/C(=C1\C(=O)Nc2ccc(Br)cc21)c1ccccc1 [Example 48, (Z)-4-(((5-bromo-2-oxoindolin-3-ylidene)(phenyl)methyl)amino)-1H-pyrazole-3-carbonitrile]",> 30
8,"Nc1cccc(/C(NC2CNC2)=C2/C(=O)Nc3ccc(Br)cc32)c1 [Example 33, (Z)-3-((3-aminophenyl)(azetidin-3-ylamino)methylene)-5-bromoindolin-2-one]",< 10
9,"O=C1Nc2ccc(Br)cc2/C1=C(/Nc1cnn(CCO)c1)c1ccccc1 [Example 53, (Z)-5-bromo-3-(((1-(2-hydroxyethyl)-1H-pyrazol-4-yl)amino)(phenyl)methylene)indolin-2-one]",10 to 30
10,"N/C(=C1\C(=O)Nc2ccc(Br)cc21)c1cc2ccccc2o1 [Example 76, (Z)-3-(amino (benzofuran-2-yl)methylene)-5-bromoindolin-2-one]",< 10
11,"O=C1Nc2ccc(Br)cc2/C1=C(/Nc1cn[nH]c1)c1cccc(O)c1 [Example 70, (Z)-3-(((1H-pyrazol-4-yl)amino)(3-hydroxyphenyl)methylene)-5-bromoindolin-2-one]",< 10
12,"O=C1Nc2ccc(Br)cc2/C1=C(/NC1CNC1)c1ccccc1 [Example 35, (Z)-3-((azetidin-3-ylamino)(phenyl)methylene)-5-bromo indolin-2-one]",< 10
13,"O=C1Nc2ccc(Br)cc2/C1=C(/Nc1ccnnc1)c1cccc(O)c1 [Example 38, (Z)-5-bromo-3-((3-hydroxyphenyl)(pyridazin-4-ylamino)methylene) indolin-2-one]",< 10
14,"O=C1Nc2ccc(Br)cc2/C1=C(/Nc1c[nH]nc1Cl)c1ccccc1 [Example 54, (Z)-5-bromo-3-((3-chloro-1H-pyrazol-4-ylamino)(phenyl)methylene)indolin-2-one]",> 30
15,"Cn1cc(N/C(=C2\C(=O)Nc3ccc(Br)cc32)c2ccccc2)cn1 [Example 22, (Z)-5-bromo-3-(((1-methyl-1H-pyrazol-4-yl)amino)(phenyl)methylene)indolin-2-one]",10 to 30
